Test in all cases: relative viability (nuclei count vs DMSO), 5 days (fraction); higher = more cells survive
Compound in the assay “Bexarotene + OSI-027”: C=C(c1ccc(C(=O)O)cc1)c1cc2c(cc1C)C(C)(C)CCC2(C)C [Bexarotene] + COc1cccc2cc(-c3nc([C@H]4CC[C@H](C(=O)O)CC4)n4ncnc(N)c34)[nH]c12 [OSI-027] (partner 0.5 µM)
Summed up: (§1)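 Nuclei were stained with Hoechst during a one-step fixation (final 0.05% Triton X-100, 1% formaldehyde, 1 ug/ml Hoechst) carried out 5 days after dosing, then counted on 4× images. The cells, lung cancer lines in 1536-well plates, had been dosed by pin tool the day after seeding with one drug alone or a fixed anchor-drug dose plus five library-drug doses (not always all listed) in √10 steps. Relative viability is the nuclei count in treated wells divided by that in vehicle wells, and each value is the median of duplicate plates.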

Compound in the assay “Bexarotene + Crizotinib”: C=C(c1ccc(C(=O)O)cc1)c1cc2c(cc1C)C(C)(C)CCC2(C)C [Bexarotene] + C[C@@H](Oc1cc(-c2cnn(C3CCNCC3)c2)cnc1N)c1c(Cl)ccc(F)c1Cl [Crizotinib] (partner 1 µM)
Summed up:
as §1

Compound in the assay “Bexarotene + Linsitinib”: C=C(c1ccc(C(=O)O)cc1)c1cc2c(cc1C)C(C)(C)CCC2(C)C [Bexarotene] + C[C@]1(O)C[C@@H](c2nc(-c3ccc4ccc(-c5ccccc5)nc4c3)c3c(N)nccn32)C1 [Linsitinib] (partner 1 µM)
Summed up:
as §1

Compound in the assay “Bexarotene + Tozasertib”: C=C(c1ccc(C(=O)O)cc1)c1cc2c(cc1C)C(C)(C)CCC2(C)C [Bexarotene] + Cc1cc(Nc2cc(N3CCN(C)CC3)nc(Sc3ccc(NC(=O)C4CC4)cc3)n2)n[nH]1 [Tozasertib] (partner 0.1 µM)
Summed up:
as §1

Consider LOU-NH91, for which the relative viability in the assay with Bexarotene + OSI-027 (first compound 0.08 µM) was 0.709; in the assay with Bexarotene + OSI-027 (first compound 0.253 µM), 0.718; with Bexarotene + OSI-027 (first compound 0.8 µM) it was 0.606; in the assay with Bexarotene + OSI-027 (first compound 2.53 µM), 0.599; with Bexarotene + OSI-027 (first compound 8 µM) it was 0.643; in the assay with Bexarotene + Crizotinib (first compound 0.08 µM), 0.767. Besides, the relative viability with Bexarotene + Crizotinib (first compound 0.253 µM) worked out at 0.73; with Bexarotene + Crizotinib (first compound 0.8 µM), 0.696; with Bexarotene + Crizotinib (first compound 2.53 µM), 0.686; with Bexarotene + Crizotinib (first compound 8 µM), 0.639; with Bexarotene + Linsitinib (first compound 0.08 µM) it was 0.912; with Bexarotene + Linsitinib (first compound 0.253 µM) it was 0.901. Also, the relative viability amounted to 0.806 in the assay with Bexarotene + Linsitinib (first compound 0.8 µM); 0.79 with Bexarotene + Linsitinib (first compound 2.53 µM); 0.823 with Bexarotene + Linsitinib (first compound 8 µM); 0.643 in the assay with Bexarotene + Tozasertib (first compound 0.08 µM); 0.624 with Bexarotene + Tozasertib (first compound 0.253 µM); 0.665 in the assay with Bexarotene + Tozasertib (first compound 0.8 µM). The values for the relative viability with Bexarotene + Tozasertib (first compound 2.53 µM) and with Bexarotene + Tozasertib (first compound 8 µM) were 0.637 and 0.598, respectively.
Take NCI-H2347: the relative viability with Bexarotene + OSI-027 (first compound 0.08 µM) was 0.353; in the assay with Bexarotene + OSI-027 (first compound 0.253 µM), 0.275; with Bexarotene + OSI-027 (first compound 2.53 µM), 0.446; in the assay with Bexarotene + OSI-027 (first compound 8 µM), 0.386; in the assay with Bexarotene + Crizotinib (first compound 0.08 µM) it was 0.671; with Bexarotene + Crizotinib (first compound 0.253 µM) it was 0.773. For the same cell line, the relative viability turned out to be 0.597 with Bexarotene + Crizotinib (first compound 0.8 µM); 0.765 in the assay with Bexarotene + Crizotinib (first compound 2.53 µM); 0.674 with Bexarotene + Crizotinib (first compound 8 µM); 1.06 with Bexarotene + Linsitinib (first compound 0.08 µM); 1.02 in the assay with Bexarotene + Linsitinib (first compound 0.253 µM); 0.749 with Bexarotene + Linsitinib (first compound 0.8 µM). Further, the relative viability in the assay with Bexarotene + Linsitinib (first compound 2.53 µM) is 0.975; with Bexarotene + Linsitinib (first compound 8 µM) it was 1.02; with Bexarotene + Tozasertib (first compound 0.08 µM) it was 0.625; in the assay with Bexarotene + Tozasertib (first compound 0.253 µM) it was 0.668; in the assay with Bexarotene + Tozasertib (first compound 2.53 µM), 0.585; with Bexarotene + Tozasertib (first compound 8 µM) it was 0.623.
For the cell line NCI-H2126, the relative viability with Bexarotene + OSI-027 (first compound 0.08 µM) worked out at 0.675; with Bexarotene + OSI-027 (first compound 0.253 µM), 0.71; in the assay with Bexarotene + OSI-027 (first compound 0.8 µM), 0.742; with Bexarotene + OSI-027 (first compound 2.53 µM), 0.74; with Bexarotene + OSI-027 (first compound 8 µM), 0.683; with Bexarotene + Crizotinib (first compound 0.08 µM), 1.08. Also, the relative viability with Bexarotene + Crizotinib (first compound 0.253 µM) was 1.05; with Bexarotene + Crizotinib (first compound 0.8 µM) it was 0.989; in the assay with Bexarotene + Crizotinib (first compound 2.53 µM) it was 1.08; with Bexarotene + Crizotinib (first compound 8 µM) it was 0.977; with Bexarotene + Linsitinib (first compound 0.08 µM), 0.8; in the assay with Bexarotene + Linsitinib (first compound 0.253 µM), 0.762. Moreover, the relative viability in the assay with Bexarotene + Linsitinib (first compound 0.8 µM) was 0.789; with Bexarotene + Linsitinib (first compound 2.53 µM), 0.791; in the assay with Bexarotene + Linsitinib (first compound 8 µM) it was 0.753; with Bexarotene + Tozasertib (first compound 0.08 µM), 0.881; with Bexarotene + Tozasertib (first compound 0.253 µM) it was 0.869; in the assay with Bexarotene + Tozasertib (first compound 0.8 µM), 0.793. For the same cell line, the results for the relative viability with Bexarotene + Tozasertib (first compound 2.53 µM) and with Bexarotene + Tozasertib (first compound 8 µM) were 0.818 and 0.829, respectively.
As for HCC-827, the relative viability was found to be 0.843 with Bexarotene + OSI-027 (first compound 0.08 µM); 0.739 in the assay with Bexarotene + OSI-027 (first compound 0.253 µM); 0.715 with Bexarotene + OSI-027 (first compound 0.8 µM); 0.867 with Bexarotene + OSI-027 (first compound 2.53 µM); 0.74 with Bexarotene + OSI-027 (first compound 8 µM); 0.894 with Bexarotene + Crizotinib (first compound 0.08 µM). Besides, the relative viability stood at 0.939 in the assay with Bexarotene + Crizotinib (first compound 0.253 µM); 0.902 with Bexarotene + Crizotinib (first compound 0.8 µM); 0.94 with Bexarotene + Crizotinib (first compound 2.53 µM); 0.915 in the assay with Bexarotene + Crizotinib (first compound 8 µM); 1.01 with Bexarotene + Linsitinib (first compound 0.08 µM); 0.966 with Bexarotene + Linsitinib (first compound 0.253 µM). Besides, the relative viability came out at 0.896 in the assay with Bexarotene + Linsitinib (first compound 0.8 µM); 0.906 in the assay with Bexarotene + Linsitinib (first compound 2.53 µM); 0.854 in the assay with Bexarotene + Linsitinib (first compound 8 µM); 0.444 with Bexarotene + Tozasertib (first compound 0.08 µM); 0.395 with Bexarotene + Tozasertib (first compound 0.253 µM); 0.433 in the assay with Bexarotene + Tozasertib (first compound 0.8 µM). The relative viability with Bexarotene + Tozasertib (first compound 2.53 µM) came out at 0.402; with Bexarotene + Tozasertib (first compound 8 µM), 0.366.
Take NCI-H3122: the relative viability with Bexarotene + OSI-027 (first compound 0.08 µM) came out at 1.09; with Bexarotene + OSI-027 (first compound 0.253 µM) it was 1.09; with Bexarotene + OSI-027 (first compound 0.8 µM) it was 1.05; in the assay with Bexarotene + OSI-027 (first compound 2.53 µM), 0.989; in the assay with Bexarotene + OSI-027 (first compound 8 µM), 1.07; with Bexarotene + Crizotinib (first compound 0.08 µM) it was 0.238. Also, the relative viability with Bexarotene + Crizotinib (first compound 0.253 µM) was found to be 0.261; with Bexarotene + Crizotinib (first compound 0.8 µM), 0.233; with Bexarotene + Crizotinib (first compound 2.53 µM), 0.276; in the assay with Bexarotene + Crizotinib (first compound 8 µM), 0.337; with Bexarotene + Linsitinib (first compound 0.08 µM), 1.14; with Bexarotene + Linsitinib (first compound 0.253 µM) it was 1.08. Moreover, the relative viability with Bexarotene + Linsitinib (first compound 0.8 µM) turned out to be 1.1; with Bexarotene + Linsitinib (first compound 2.53 µM), 1.07; with Bexarotene + Linsitinib (first compound 8 µM), 1.14; with Bexarotene + Tozasertib (first compound 0.08 µM) it was 0.431; with Bexarotene + Tozasertib (first compound 0.253 µM) it was 0.492; with Bexarotene + Tozasertib (first compound 0.8 µM) it was 0.425. Also, the relative viability with Bexarotene + Tozasertib (first compound 2.53 µM) was found to be 0.471; in the assay with Bexarotene + Tozasertib (first compound 8 µM), 0.476.
As to HOP-62, the relative viability with Bexarotene + OSI-027 (first compound 0.08 µM) was found to be 0.92; with Bexarotene + OSI-027 (first compound 0.253 µM) it was 0.841; with Bexarotene + OSI-027 (first compound 0.8 µM) it was 0.847; with Bexarotene + OSI-027 (first compound 2.53 µM), 0.803; in the assay with Bexarotene + OSI-027 (first compound 8 µM), 0.802; with Bexarotene + Crizotinib (first compound 0.08 µM) it was 1.18. For the same cell line, the relative viability with Bexarotene + Crizotinib (first compound 0.253 µM) is 0.915; with Bexarotene + Crizotinib (first compound 0.8 µM) it was 0.953; with Bexarotene + Crizotinib (first compound 2.53 µM) it was 1.09; with Bexarotene + Crizotinib (first compound 8 µM) it was 0.944; in the assay with Bexarotene + Linsitinib (first compound 0.08 µM), 1.01; with Bexarotene + Linsitinib (first compound 0.253 µM) it was 1.17. For the same cell line, the relative viability with Bexarotene + Linsitinib (first compound 0.8 µM) was determined as 1.15; with Bexarotene + Linsitinib (first compound 2.53 µM) it was 1.02; with Bexarotene + Linsitinib (first compound 8 µM), 0.909; with Bexarotene + Tozasertib (first compound 0.08 µM) it was 0.352; with Bexarotene + Tozasertib (first compound 0.253 µM), 0.366; with Bexarotene + Tozasertib (first compound 0.8 µM), 0.408. Further, the figures for the relative viability with Bexarotene + Tozasertib (first compound 2.53 µM) and in the assay with Bexarotene + Tozasertib (first compound 8 µM) were 0.391 and 0.363, respectively.
HCC-44: the relative viability is 0.58 with Bexarotene + OSI-027 (first compound 0.08 µM); 0.589 with Bexarotene + OSI-027 (first compound 0.253 µM); 0.553 in the assay with Bexarotene + OSI-027 (first compound 0.8 µM); 0.496 in the assay with Bexarotene + OSI-027 (first compound 2.53 µM); 0.502 with Bexarotene + OSI-027 (first compound 8 µM); 0.766 with Bexarotene + Crizotinib (first compound 0.08 µM). Moreover, the relative viability with Bexarotene + Crizotinib (first compound 0.253 µM) was determined as 0.82; with Bexarotene + Crizotinib (first compound 0.8 µM) it was 0.824; with Bexarotene + Crizotinib (first compound 2.53 µM), 0.782; in the assay with Bexarotene + Crizotinib (first compound 8 µM) it was 0.776; with Bexarotene + Linsitinib (first compound 0.08 µM) it was 0.683; with Bexarotene + Linsitinib (first compound 0.253 µM), 0.727. Moreover, the relative viability with Bexarotene + Linsitinib (first compound 0.8 µM) amounted to 0.56; in the assay with Bexarotene + Linsitinib (first compound 2.53 µM), 0.683; with Bexarotene + Linsitinib (first compound 8 µM), 0.615; with Bexarotene + Tozasertib (first compound 0.08 µM), 1.34; with Bexarotene + Tozasertib (first compound 0.253 µM), 1.07; with Bexarotene + Tozasertib (first compound 0.8 µM), 0.925. Further, the relative viability in the assay with Bexarotene + Tozasertib (first compound 2.53 µM) was 0.842; with Bexarotene + Tozasertib (first compound 8 µM), 0.82.

For the origin of these results see the supplement of paper PMC10307832.
